Measured values as given in a melting point compilation (Tetko et al.; mined from patent text by program, amines drawn as free bases though some values may be those of a salt).

Compound | melting point
O=[N+]([O-])c1ccc(-c2nc(-c3ccccc3)no2)o1 | 164 to 166 °C
CC(C)(C)C(NCCSC12CC3CC(CC(C3)C1)C2)C(=O)O (stereo not given) | 220 to 230 °C
Brc1cccc(C#Cc2ccncc2)c1 | 140 to 142 °C
CCOC(=O)c1cccc(NC(=O)c2ccc(OC)c(NCc3cccs3)c2)c1 | 153 to 155 °C
CN(C)c1c(S(=O)C(F)(F)F)c(C#N)nn1-c1c(Cl)cc(C(F)(F)F)cc1Cl (stereo not given) | 154 to 161 °C
COCC(COC)N1CCc2cc(Nc3ncc(Cl)c(Nc4ccc(C(N)=O)cc4OC)n3)c(OC)cc2CC1 | 220 to 223 °C
COc1cc(CCC(=O)O)ccc1OCc1sc(-c2ccc(C(F)(F)F)cc2)nc1C | 150 to 152 °C
CCS(=O)(=O)CC(=O)c1cc(C(C)(C)C)c(O)c(C(C)(C)C)c1 | 120 °C
CC(C)(C)c1ccc(CC(=O)CCC2CCCCC2)cc1NC(=O)CC1c2ccccc2Oc2ccccc21 | 134 to 135 °C
OC1CCc2ccc(Cl)cc2C1 (stereo not given) | 79 to 81 °C
COc1cc(-n2cc(F)c(F)c2)ccc1-n1cc(OC)c(=O)c(-c2ccnn2-c2ccccc2)n1 | 206 to 207 °C
CC(=O)C1(O)CCC2C3C=C(Cl)C4=CC(=O)OCC4(C)C3CCC21C (stereo not given) | 218 to 221 °C
CC(=O)Nc1cc([N+](=O)[O-])ccc1CBr | 188 to 189 °C
O=NN(CCCl)C(=O)NCCOC(=O)c1cccnc1 | 63 to 64 °C
CC(=O)OC1CCC2(C)C(=CC(=O)C3C4CCC(=O)C4(C)CCC32)C1=O (stereo not given) | 193 to 195 °C
N#CCc1cccc2oc(Br)c(-c3ccccc3)c12 | 131 to 133 °C
CCOc1cc(N)nc(Cl)n1 | 133 °C
CCCCc1cc(Cc2ccc(C(=O)O)cc2)c2ccccc2n1 | 158 °C
N#CCc1cc(Br)c(C(=O)c2ccc(Cl)cc2)[nH]1 | 185 to 186 °C
CSc1nsc(N)c1C#N | 188 to 189 °C
COc1cc(NCCCCCCN2CCN(C(=O)OCc3ccccc3)CC2)c2nccc(C)c2c1 | 73 to 73.5 °C
NCCCCn1cnc(-c2ccccc2)c1 | 130 to 132 °C
Cn1sc(Cl)c(Cl)c1=O | 119 to 120 °C

Compound | melting point
N#Cc1ccc(-c2csc(-n3c(=O)oc4ccccc43)n2)cc1 | 244 to 245 °C
CC(=O)c1c(-c2ccccc2)nn(CC2CC2)c(=O)c1Nc1cccc2cccnc12 | 123 to 125 °C
O=C(c1ccc(Nc2ccnc3cc(C(F)(F)F)ccc23)cc1)N1CCN(c2ncccn2)CC1 | 246 to 248 °C
Cc1nc(-c2ccc(C(=O)Nc3ccc(Cl)cc3)cc2)sc1C(=O)O | 276 to 278 °C
COc1c(F)cc2c(O)c(C(=O)NCc3ccc(Cl)cc3)cnc2c1F | 217 to 219 °C
O=C(O)c1ccccc1SCc1nccc2ccccc12 | 170 to 172 °C
O=C(Cc1ccccn1)c1ccc2ncccc2c1 | 104 °C
CNC(=O)n1nc(Oc2ccc(C(F)(F)F)cc2[N+](=O)[O-])c(C)c1C | 117 to 119 °C
CC(C)(CN)c1ccc2nc(-c3ccccc3)[nH]c2c1 | 185 to 187 °C
COC(=O)COc1ccc(S(=O)(=O)C(Br)(Br)Br)cc1 | 152 to 153 °C
ClCc1nnc2n1-c1ccccc1C(c1ccccc1Cl)=NC2 | 186 to 188 °C
CC(C)c1nc2cc(COc3ccc(CC4OC(=O)N(C(c5ccccc5)(c5ccccc5)c5ccccc5)C4=O)cc3)ccc2o1 (stereo not given) | 123 to 125 °C
Cc1cccc(C(=O)NC(C)C)c1N | 149 to 151 °C
COC(=O)c1ccc(C(F)(F)F)cc1N(S(C)(=O)=O)S(C)(=O)=O | 221 to 225 °C
COc1ccc2cc(CCCOCCCCCCNCC(O)c3cc(Cl)c(N)c(Cl)c3)ccc2c1 (stereo not given) | 102 to 104 °C
CC1CC(=O)NN=C1c1ccc(NCCN)c([N+](=O)[O-])c1 (stereo not given) | 162 to 164 °C
O=C(O)/C=C/c1ccc(C(=O)c2c(-c3ccc(O)cc3)sc3cc(O)ccc23)cc1 | 155 to 160 °C
Nc1cc(C(c2ccc([N+](=O)[O-])c(N)c2)(C(F)(F)F)C(F)(F)F)ccc1[N+](=O)[O-] | 257 to 259 °C
CC(C)(C)C(=O)NCCc1cccs1 | 79 to 80 °C
CCCCCCCCSCC(=O)[C@H](Cc1ccccc1)NC(=O)[C@H](CC(C)C)NC(=O)OCc1ccccc1 | 69 °C
CN(Cc1cc(C(F)(F)F)cc(C(F)(F)F)c1)C(=O)c1c(-c2ccc(F)cc2)c2c(c(=O)n1C)CCCN2 | 226 to 228 °C
COc1cc(-n2cccn2)ccc1-n1cc(OC)c(=O)c(-c2ccnn2-c2cccc(Cl)c2)n1 | 167 to 168 °C

Continued, values first:

melting point | Compound
163 to 173 °C | CCOc1ccc(N(c2ccccc2)C2(c3ccc(N(CC)Cc4ccccc4)cc3)OC(=O)c3ccccc32)cc1 (stereo not given)
182 to 184 °C | CC(C)n1c(=O)oc2cc(N3C[C@H](C(N)=O)OC3=O)ccc21
124 to 125 °C | CC(=O)c1ccccc1OCc1cccc(S(N)(=O)=O)c1
99 to 100 °C | COc1cccc(Sc2cccc(F)c2C#N)c1
221 to 223 °C | Oc1ccc2nc(-c3cccc4c(Br)c(O)ccc34)oc2c1
238 to 240 °C | COc1cc(C2C3=C(COC3=O)Nc3ccc4cn[nH]c4c32)ccc1O (stereo not given)
119 °C | O=C(CN1CCN(c2ccccc2)CC1)N1CCC(CNCc2ccco2)(c2cccc(C(F)(F)F)c2)CC1
114 to 116 °C | Cc1nc(Br)sc1NC(=O)OC(C)(C)C
204 °C | Fc1cccc(COc2ccc(Nc3ncnc4sc(C#Cc5nccs5)cc34)cc2Cl)c1
214 to 216 °C | Cc1nnc(OC(=O)N2CCN(C)CC2)n1-c1ccc(Cl)cn1
84 to 86 °C | COC=C(C#N)CNC=O
230 to 231 °C | CS(=O)(=O)N(CCO)C1CCC(Nc2nccc(-n3nnc4ccccc43)n2)CC1 (stereo not given)
149 to 152 °C | COC(=O)c1ccc(C(=O)N2CCN(c3ncccc3[N+](=O)[O-])CC2)cc1
193 to 195 °C | Nc1ncc(S(=O)c2ccncc2)s1 (stereo not given)
32 to 34 °C | COC(=O)c1sc(Cl)nc1C(F)(F)F
156 °C | Fc1ccc(Nc2nc(N/N=C/c3c(F)cccc3F)nc(N3CCOCC3)n2)cc1
196 °C | CC(=O)NC(=O)Nc1ccc(OS(=O)(=O)c2cccc(C(F)(F)F)c2)cc1[N+](=O)[O-]
166 to 167 °C | CCN(c1ccc(C)c2cc(-c3ncc(CO)s3)[nH]c12)S(=O)(=O)c1cccs1
196 to 198 °C | N[C@H]1CCN(c2ccc3c(C(=O)NCCc4ccccc4Cl)c(Cl)ccc3n2)C1
78 °C | CCOc1c(Cl)cc([N+](=O)[O-])c(OCC)c1[N+](=O)[O-]
106 to 108 °C | CCOCCn1cc(C2CCN(CCOc3cc(OC)ccc3C(=O)O)CC2)c2cccnc21
172 to 174 °C | O=[N+]([O-])c1cccc2[nH]ncc12
155 to 157 °C | Cc1ccccc1C(=O)c1ccc(C(=O)O)o1
97 to 99 °C | O=C(OCc1ccccc1)N1CCC(c2nc(CO)c(-c3ccc(Cl)cc3)o2)CC1
237 to 238 °C | O=C1NC(=O)C(=Cc2ccc(SCc3ccccc3)cc2)S1
114 to 116 °C | O=S(=O)(Oc1ccccc1)c1ccc(O)cc1
258 to 261 °C | C=CC(=O)Nc1ccc2ncnc(Nc3cccc(Br)c3)c2c1
112 to 115 °C | CC(=Cc1ccccc1)CN1CCc2nc(N)sc2CC1

melting point | Compound
61 °C | CCCCCCCC(=O)OCc1ccccc1-c1nc(-c2cccc(OC)c2)n[nH]1
> 300 °C | O=C1CC2(C(=O)N1)C(=O)N1c3ccccc3Sc3cccc2c31 (stereo not given)
123 to 126 °C | O=C(NC1CCc2[nH]c3ccc(OC(F)(F)F)cc3c2C1)OCc1ccccc1 (stereo not given)
130 °C | CC(=O)c1ccc(C2=NC[C@@H](O)[C@H](c3ccccc3)O2)cc1 (racemic)
255 °C | COc1cc(NC(=O)c2ccco2)ccc1S(=O)(=O)N1C(=O)C(c2ccccc2Cl)(N(C)C)c2cc(Cl)ccc21 (stereo not given)
146 to 147 °C | NCCCOc1cccc2[nH]c3ccccc3c12
340 °C | Cc1n[nH]c2c(O)ncnc12
147 to 149 °C | CCOc1cc2cc(CO)cc(-c3ccnc(NN)c3)c2cc1OCC
189 °C | C[C@H]1Cn2c(=O)[nH]c3cc(N)cc(c32)CN1CC1CC1
249 °C | Cc1c(C(=O)N=C(N)N)cc(S(C)(=O)=O)c(-n2ccnc2)c1C
188 to 190 °C | CS(=O)(=O)c1ccc(-c2nc(C(F)(F)F)nc(Cl)c2-c2ccc(Cl)cc2)cc1
83 to 85 °C | Cc1ccc(Cl)cc1N1CN(C(C)C)CN(C)C1=S
139 to 141 °C | CCOC(=O)c1cccc2c1Nc1ccc(C(=O)c3ccccc3)cc1N2C
175 °C | N#Cc1cc2c(c(C(=O)O)c1)NCCCC2
202 to 204 °C | CCC(=O)c1cc(SC)cc(CNC(=O)CCl)c1O
52 to 53 °C | CCOC(=O)CC(=O)c1cc(F)c(F)c(Cl)c1Cl
205 to 206 °C | CCCC(=O)N[C@H]1C[C@H](C(=O)OC)Nc2cc(Cl)cc(Cl)c21 (relative stereo)
173 to 175 °C | N=C(NS(=O)(=O)C=Cc1ccc([N+](=O)[O-])cc1)c1ccccc1
62 to 63 °C | O=C(c1ccc(Br)cc1)c1ccc(O)cc1F
170 to 172 °C | O=C(O)c1cc(CCl)cnc1C(=O)O
161 to 163 °C | CC(=O)C1CCC2C3CCC4=CC(=O)C=CC4(C)C3=CCC12C (stereo not given)
282 to 283 °C | COc1cc2nc(Cn3cnc4c(N)ncnc43)n(-c3ccccc3Cl)c(=O)c2cc1OC
160 to 162 °C | CCOC(=O)C1=C(C)Nc2c(C(=O)OCC)ncn2C1c1cccc([N+](=O)[O-])c1 (stereo not given)
228 °C | Cn1ncnc1COc1nn2c(-c3ccccc3)nnc2cc1C1CCC1
248 to 249 °C | COc1cc(C=CC=C2SC(=O)NC2=O)ccc1OCc1csc(-c2ccccc2)n1
170 °C | CCCCc1nc2c(n1Cc1ccc(-c3ccccc3S(=O)(=O)NC(=O)NCCC)cc1)C(=CC(=O)OCC)CCS2
224 to 229 °C | COc1cc(Nc2c(C#N)cnc3cc(-c4ccc(C5OCCO5)o4)ccc23)c(Cl)cc1Cl
